Results from patent US20080171706A1, “Anti-Adhesive Compounds to Prevent and Treat Bacterial Infections” (priority 2004, published 2008).

Assays:
FimHtrCl#4 = biological target: T1, FimHtrCl#4 (Escherichia coli, UniProt P08191, G94E/N91S/S99N/V48A); assay: biochemical; assay type: binding, E. coli UPEC (Cl#4) strain
T1 construct: coding for the lectin domain of FimH (residues 1-158) with a C-terminal 6-histidine tag; made in house; host or cells: E. coli HB101 (lacking the fim operon), periplasmic extract, plasmid pMAS146
T1 sequence (P08191 22-179 V48A/N91S/G94E/S99N): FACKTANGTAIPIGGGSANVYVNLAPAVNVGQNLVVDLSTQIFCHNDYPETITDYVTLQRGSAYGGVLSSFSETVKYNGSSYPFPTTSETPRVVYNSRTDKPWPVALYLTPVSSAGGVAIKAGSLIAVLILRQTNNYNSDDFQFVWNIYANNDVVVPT
Protocol: To investigate if these variations reflect differences in sugar binding at the molecular level, the dissociation constants of a series of mannosides for the FimH lectin domain from a fecal (F18) and from a UPEC (Cl#4) strain were determined. […] For comparison, binding to FimHtrJ96 was also investigated. Both F18 and Cl#4 FimH lectin domains were cloned, expressed, and purified in the same way as FimHtrJ96 (Schembri et al., 2000). These two lectin domains differ from the lectin domain of FimHJ96 by substitutions Val27Ala, Asn70Ser and Ser78Asn. In addition, FimHCl#4 differs from the other two variants by a Gly73Glu substitution. […] Five different tri-mannosides corresponding to high-mannose substructures were synthesized, and their binding to FimHtrJ96, FimHtrF18 and FimHtrCl#4 measured using our [^3H]-mannose displacement assay (Table 3). Alpha-D-mannose binding was first directly measured for each of the FimH variants.
[^3H]alpha-D-mannose was obtained from Amersham. […] Syntheses of tri-mannosides was as reported earlier by Oscarson and co-workers (1993). Weighed amounts of tri-mannosides were dissolved in double distilled water to give stock solutions of 0.87 M man-(1,2)-man-(1,2)-man, 0.25 M man-(1,2)-man-(1,3)-man, 0.27 M man-(1,2)-man-(1,6)-man, 0.30 M man-(1,3)-man-(1,6)-man, 0.13 M man-(1,6)-man-(1,6)-man. Similarly, alkyl mannosides were dissolved in double distilled water to give stock solutions of 100 mM methyl mannoside, 59.8 mM ethyl mannoside, 45.9 mM propyl mannoside, 51.9 mM butyl mannoside, 17.3 mM pentyl mannoside, 20.8 mM hexyl mannoside, 15.3 mM heptyl mannoside, 15.2 mM octyl mannoside. pNPalphaMan and MeUmbalphaMan (6 mg each) were dissolved in 20 μl DMSO and diluted to 20 mM using double distilled water. Binding experiments were performed using six different concentrations of [^3H]-alpha-D-mannose (final concentrations 43.5 μM, 29.0 μM, 19.3 μM, 12.9 μM, 8.6 μM, 5.7 μM). FimHtrJ96 obtained by growing bacteria in minimal medium was used in all binding experiments. 180 μl protein at a concentration of about 500 nM was mixed with 20 μl of the radioactive ligand, and incubated at 37° C. for 20 min. To separate free ligand from bound, the mixture was rapidly filtrated through a Protran BA 85 Cellulose-nitrate filter (Schleicher & Schuell, Dassel, Germany), and washed once with 1 ml of ice-cold 1× PBS (phosphate buffered saline). Filter-bound radioactivity was measured by scintillation spectrometry within 24 hours. The displacement experiments were performed using six different concentrations (final concentrations in the range 0.0˜43.5 μM) of the inhibitor, in the presence of 43.5 μM [^3H]-alpha-D-mannose. 20 μl radioactive ligand, 20 μl inhibitor at decreasing concentrations, and 160 μl protein (500 nM) were mixed, and the experiments performed as above. All experiments were performed in duplicates. For determination of KD for α-D-mannose, a hyperbolic curve (y=P1x/(P2+x), where P2=KD) was fitted to the data. For the displacement experiments, the curve y=P1/(P2+x), where P2 is the concentration of the inhibitor displacing 50% of the labelled ligand, [I]0.5 was used instead. To calculate the inhibitor dissociation constant (KI) the Cheng & Prusoff equation (KI=[I]0.5/([L]/KL+1); KL is the constant of dissociation for the ligand) (Cheng and Prusoff, 1973), was used when both the concentration of the radioactive ligand (L) and the displacing agent (I) are in excess over the protein (LT>>PT;IT>>PT, T indicates total concentration). […] A plot of IT/((1−Y)*(LT/KL)−Y) against 1/Y gives a straight line with a slope of KI.

FimC:FimH complex = biological target: T2, FimC:FimH complex (Escherichia coli, UniProt P08191); assay: Binding of alpha-D-mannose to full length FimH in FimC:FimH complex; design: species or system E. coli
T2 construct: lectin domain (residues 1-158) is joined to a carboxy-terminal pilin domain (residues 159-279)
T2 sequence (P08191 22-300): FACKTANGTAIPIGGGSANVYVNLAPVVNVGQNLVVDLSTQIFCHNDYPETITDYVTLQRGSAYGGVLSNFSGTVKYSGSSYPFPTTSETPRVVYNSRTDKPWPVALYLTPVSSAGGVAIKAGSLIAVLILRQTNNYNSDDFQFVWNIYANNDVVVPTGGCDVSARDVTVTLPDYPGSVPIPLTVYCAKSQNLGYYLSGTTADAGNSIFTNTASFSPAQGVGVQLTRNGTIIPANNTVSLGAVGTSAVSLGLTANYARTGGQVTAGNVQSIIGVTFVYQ
T2 sequence (P31697 37-241, further chain): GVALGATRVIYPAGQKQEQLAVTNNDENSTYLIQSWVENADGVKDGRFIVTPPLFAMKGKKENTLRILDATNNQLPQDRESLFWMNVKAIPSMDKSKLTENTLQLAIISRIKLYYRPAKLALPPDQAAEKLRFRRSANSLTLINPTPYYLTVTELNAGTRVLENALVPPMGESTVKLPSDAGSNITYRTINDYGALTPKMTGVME
Protocol: To eliminate the possibility of different binding strength for full length FimH and FimHtrJ96, the binding of alpha-D-mannose to FimC:FimH complex was also measured. […] The inhibition of [^3H]-mannose binding was used in a displacement assay to determine the dissociation constant for a synthetic butyl mannoside by measuring the amount of [^3H]-mannose bound to the protein in the presence of increasing amounts of the inhibitor (FIG. 1B). […] To investigate the effect of sequential addition of methyl groups to the O1 oxygen of D-mannose, a series of alkyl mannosides were synthesized and the dissociation constants determined using the [^3H]-mannose displacement assay and by surface plasmon resonance (Table 1).

**Q.** Which Kd (FimHtrCl#4; KD CI#4, Table 3, [3H]-mannose displacement assay (mannose measured directly)) does the source give for `OC[C@H]1O[C@H](O)[C@@H](O)[C@@H](O)[C@@H]1O` [Mannose, α-D-mannose] here?
**A.** 10.7 µM

**Q.** And the Kd (FimHtrCl#4; KD, mannose binding measured directly, FimHtrCl#4)?
**A.** 11 µM

**Q.** And the “ΔG° CI#4” value (FimHtrCl#4; Table 3, calculated from KD)?
**A.** -7.0 kcal/mol

**Q.** What about the Kd (FimC:FimH complex) of the same compound?
**A.** 2.3 µM
